Experimental data published in patent US12466820B2, “Amino quinazoline derivatives as P2X3 inhibitors” (CHIESI FARMACEUTICI S.p.A., priority 2019, dated 2025).

Target: T1, h P2X3 (Homo sapiens, UniProt P56373)
T1 sequence (P56373 1-397): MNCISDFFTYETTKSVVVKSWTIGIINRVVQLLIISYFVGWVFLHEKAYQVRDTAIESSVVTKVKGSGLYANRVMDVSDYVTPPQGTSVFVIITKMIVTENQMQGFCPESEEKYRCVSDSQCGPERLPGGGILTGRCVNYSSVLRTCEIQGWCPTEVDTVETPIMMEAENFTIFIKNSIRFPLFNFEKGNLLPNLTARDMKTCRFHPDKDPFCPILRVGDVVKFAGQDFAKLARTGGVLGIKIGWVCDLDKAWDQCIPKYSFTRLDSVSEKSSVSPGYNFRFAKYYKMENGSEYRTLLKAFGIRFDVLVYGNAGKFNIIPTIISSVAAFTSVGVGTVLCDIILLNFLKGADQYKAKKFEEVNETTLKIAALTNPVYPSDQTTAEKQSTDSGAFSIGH
Experiment: In vitro electrophysiology assay for P2X3 (automated whole-cell patch clamp, Sophion Qube)
Assay type: cell-based
Settings: range of activity; for IC50: Table 6, inhibition of P2X3 current, agonist α,β-MeATP (800 nM)
Procedure: Pharmacological Activity of the Compounds of the Invention In Vitro Electrophysiology Assay for P2X3
Cells expressing P2X3 receptors were grown according to standard practice and maintained at 37° C. in a 5% humidified CO2 atmosphere. The cells were seeded into T175 flask 2 days prior to the day of the assay and dissociated from the flasks using TrypLE when grown to confluence of 80-90%. The dissociated cells were resuspended in serum free media at a cell density of 3×10^6 cells/ml and loaded onto the Sophion Qube automated patch-clamp system. The extracellular assay buffer contained 145 mM NaCl, 4 mM KCl, 2 mM CaCl2), 1 mM MgCl2, 10 mM HEPES, and 10 mM glucose at pH 7.4. The intracellular assay solution contained 140 mM CsF, 10 mM NaCl, 10 mM EGTA, 10 mM HEPES at pH 7.2. Agonist stock solutions were prepared in H2O and diluted in bath solution prior to use. All antagonists were prepared as 10 mM stock solutions in DMSO and diluted in bath solution prior to use. All experiments were performed under the whole-cell patch clamp configuration at room temperature with 384 individual cells being voltage clamped at −60 mV simultaneously on the Sophion Qube instrument. Two baseline responses were established with the application of α,β-MeATP (800 nM), with the subsequent agonist applications being washed out using extracellular assay buffer containing 0.5 U/ml apyrase. Following the second agonist application, antagonist was incubated in the absence of α,β-MeATP for 10 minutes. After antagonist preincubation, 800 nM α,β-MeATP and antagonist were co-administered to determine the inhibitory effect of the antagonist. One concentration of an antagonist was assessed against a single cell, with different concentrations of the antagonist applied to other cells on the 384 recording substrate. The control P2X3 current amplitude was taken from the peak current amplitude from the second agonist response prior to preincubation with antagonist. The peak P2X3 current amplitude in the presence of antagonist was used to calculate the inhibitory effect at each concentration of the antagonist according to the following equation: […]
Concentration-response curves were constructed from ten different concentrations with each concentration of antagonist tested on at least two individual cells. The concentration of the antagonist to inhibit P2X3 current by 50% (IC50) was determined by fitting the data with the following equation: […]
Where ‘a’ is minimum response, ‘b’ is maximum response, ‘c’ is IC50 and ‘d’ is Hill slope.
The results for individual compounds are provided below in Table 6 and are expressed as range of activity.
The activity of the comparative examples A and B have been tested in the in vitro Electrophysiology Assay for P2X3 as described above.

IC50 [nM] | h P2X3 (inhibition of P2X3 current evoked by 800 nM α,β-MeATP, 10 min antagonist preincubation, comparative examples) | SMILES
< 316 |  | Cc1nnc([C@@H](C)Nc2ncnc3c(S(=O)(=O)N4CCOCC4)cc(-c4ccc(F)cc4)cc23)s1 (racemic) [Example 10, (Rac)-6-(4-fluorophenyl)-N-(1-(5-methyl-1,3,4-thiadiazol-2-yl)ethyl)-8-(morpholinosulfonyl)quinazolin-4-amine]
316 to 3160 |  | Cc1cnc(-c2cc(OC3CCOCC3)c3ncnc(NC(C)c4ccc(C)nn4)c3c2)nc1 (single isomer, unassigned) [Example 29, N-[1-(6-methylpyridazin-3-yl)ethyl]-6-(5-methylpyrimidin-2-yl)-8-tetrahydropyran-4-yloxy-quinazolin-4-amine]
316 to 3160 |  | Cc1ccc(-c2cc(OC3CCOCC3)c3ncnc(NC(C)c4nnc(C)s4)c3c2)nc1 (single isomer, unassigned) [Example 83, 6-(5-methyl-2-pyridyl)-N-[1-(5-methyl-1,3,4-thiadiazol-2-yl)ethyl]-8-tetrahydropyran-4-yloxy-quinazolin-4-amine]
< 316 |  | Cc1ccc(-c2cc(OC3CCOCC3)c3ncnc(NC(C)c4nnc(C)s4)c3c2)nc1 (single isomer, unassigned) [Example 84, 6-(5-methyl-2-pyridyl)-N-[1-(5-methyl-1,3,4-thiadiazol-2-yl)ethyl]-8-tetrahydropyran-4-yloxy-quinazolin-4-amine]
< 316 |  | Cc1noc(C(C)Nc2ncnc3c(OC4CCOCC4)cc(-c4ccc(F)cn4)cc23)n1 (single isomer, unassigned) [Example 85, 6-(5-fluoro-2-pyridyl)-N-[1-(3-methyl-1,2,4-oxadiazol-5-yl)ethyl]-8-tetrahydropyran-4-yloxy-quinazolin-4-amine]
< 316 |  | COc1cc(-c2ncc(C)cn2)cc2c(NC(C)c3ccc(C(F)(F)F)nn3)ncnc12 (single isomer, unassigned) [Example 120, 8-methoxy-6-(5-methylpyrimidin-2-yl)-N-[1-[6-(trifluoromethyl)pyridazin-3-yl]ethyl]quinazolin-4-amine]
3160 to 31600 |  | COc1cc(-c2ncc(C)cn2)cc2c(NC(C)c3nc(C)no3)ncnc12 (single isomer, unassigned) [Example 122, 8-Methoxy-N-[1-(3-methyl-1,2,4-oxadiazol-5-yl)ethyl]-6-(5-methylpyrimidin-2-yl)quinazolin-4-amine]
316 to 3160 |  | COc1cc(-c2ncc(C)cn2)cc2c(NC(C)c3nnc(C)s3)ncnc12 (single isomer, unassigned) [Example 124, 8-Methoxy-6-(5-methylpyrimidin-2-yl)-N-[1-(5-methyl-1,3,4-thiadiazol-2-yl)ethyl]quinazolin-4-amine]
< 316 |  | COc1cc(-c2ncc(C)cn2)cc2c(NC(C)c3nnc(C)s3)ncnc12 (single isomer, unassigned) [Example 125, 8-Methoxy-6-(5-methylpyrimidin-2-yl)-N-[1-(5-methyl-1,3,4-thiadiazol-2-yl)ethyl]quinazolin-4-amine]
3160 to 31600 |  | COc1cc(-c2ccc(C)cn2)cc2c(NC(C)c3nnc(C)s3)ncnc12 (single isomer, unassigned) [Example 126, 8-methoxy-6-(5-methyl-2-pyridyl)-N-[1-(5-methyl-1,3,4-thiadiazol-2-yl)ethyl]quinazolin-4-amine]
3160 to 31600 |  | COc1cc(-c2ncc(C)cn2)cc2c(NC(C)c3nnc(C)o3)ncnc12 (single isomer, unassigned) [Example 128]
316 to 3160 |  | COc1cc(-c2ccc(C)cn2)cc2c(NC(C)c3nc(C)no3)ncnc12 (single isomer, unassigned) [Example 162, 8-Methoxy-N-[1-(3-methyl-1,2,4-oxadiazol-5-yl)ethyl]-6-(5-methyl-2-pyridyl)quinazolin-4-amine]
316 to 3160 |  | COc1cc(-c2ncc(C)s2)cc2c(NC(C)c3nnc(C)s3)ncnc12 (single isomer, unassigned) [Example 164, 8-methoxy-N-(1-(5-methyl-1,3,4-thiadiazol-2-yl)ethyl)-6-(5-methylthiazol-2-yl)quinazolin-4-amine]
< 316 |  | COc1cc(-c2ncc(C)s2)cc2c(NC(C)c3nnc(C)s3)ncnc12 (single isomer, unassigned) [Example 165, 8-methoxy-N-(1-(5-methyl-1,3,4-thiadiazol-2-yl)ethyl)-6-(5-methylthiazol-2-yl)quinazolin-4-amine]
316 to 3160 |  | COc1cc(-c2ncc(C)cn2)cc2c(NC(C)c3nc(-c4ccncc4)no3)ncnc12 (single isomer, unassigned) [Example 167, 8-methoxy-6-(5-methylpyrimidin-2-yl)-N-(1-(3-(pyridin-4-yl)-1,2,4-oxadiazol-5-yl)ethyl)quinazolin-4-amine]
316 to 3160 |  | COc1cc(-c2ccc(F)cn2)cc2c(NC(C)c3ccc(C(F)(F)F)nn3)ncnc12 (single isomer, unassigned) [Example 170, 6-(5-fluoro-2-pyridyl)-8-methoxy-N-[1-[6-(trifluoromethyl)pyridazin-3-yl]ethyl]quinazolin-4-amine]
316 to 3160 |  | Cc1cnc(-c2cc(OC3CCOCC3)c3ncnc(NC(C)c4nnc(C)s4)c3c2)s1 (single isomer, unassigned) [Example 171, N-[1-(5-methyl-1,3,4-thiadiazol-2-yl)ethyl]-6-(5-methylthiazol-2-yl)-8-tetrahydropyran-4-yloxy-quinazolin-4-amine]
< 316 |  | Cc1cnc(-c2cc(OC3CCOCC3)c3ncnc(NC(C)c4nnc(C)s4)c3c2)s1 (single isomer, unassigned) [Example 172, N-[1-(5-methyl-1,3,4-thiadiazol-2-yl)ethyl]-6-(5-methylthiazol-2-yl)-8-tetrahydropyran-4-yloxy-quinazolin-4-amine]
316 to 3160 |  | COc1cc(-c2ccc(F)cn2)cc2c(NC(C)c3nc(C)no3)ncnc12 (single isomer, unassigned) [Example 175, 6-(5-fluoropyridin-2-yl)-8-methoxy-N-(1-(3-methyl-1,2,4-oxadiazol-5-yl)ethyl)quinazolin-4-amine]
3160 to 31600 |  | COc1cc(-c2ccc(F)cc2)cc2c(NC(C)c3nc(-c4ccncc4)no3)ncnc12 (single isomer, unassigned) [Example 192, 6-(4-fluorophenyl)-8-methoxy-N-(1-(3-(pyridin-4-yl)-1,2,4-oxadiazol-5-yl)ethyl)quinazolin-4-amine]
< 316 |  | Cc1nnc([C@@H](C)Nc2ncnc3c(S(=O)(=O)N(C)C)cc(-c4ccc(F)cc4)cc23)s1 (stereo in doubt) [Example 12, 6-(4-fluorophenyl)-N,N-dimethyl-4-((1-(5-methyl-1,3,4-thiadiazol-2-yl)ethyl)amino)quinazoline-8-sulfonamide]
 | inactive | Cc1ccc(COc2ncnc3ncc(-c4ccc(F)cc4)cc23)cn1 [Comparative Example A, 6-(4-fluorophenyl)-4-[(6-methyl-3-pyridyl)methoxy]pyrido[2,3-d]pyrimidine, reference compound]
< 316 |  | COc1cc(-c2ccc(F)cc2)cc2c(NC(C)c3cccc(=O)[nH]3)ncnc12 (centres unmarked) [Example 1, 6-(1-((6-(4-Fluorophenyl)-8-methoxyquinazolin-4-yl)amino)ethyl)pyridin-2(1H)-one]
316 to 3160 |  | COc1cc(-c2ncc(F)cn2)cc2c(NC(C)c3nc(C)no3)ncnc12 (centres unmarked) [Example 3, 6-(5-fluoropyrimidin-2-yl)-8-methoxy-N-(1-(3-methyl-1,2,4-oxadiazol-5-yl)ethyl)quinazolin-4-amine]
316 to 3160 |  | COc1cc(-c2ncc(F)cn2)cc2c(N[C@H](C)c3ccc(C)nn3)ncnc12 [Example 4]
316 to 3160 |  | COc1cc(-c2ncc(C)cn2)cc2c(NC(C)c3nc(-c4ccncc4)no3)ncnc12 (centres unmarked) [Example 6, 8-methoxy-6-(5-methylpyrimidin-2-yl)-N-(1-(3-(pyridin-4-yl)-1,2,4-oxadiazol-5-yl)ethyl)quinazolin-4-amine]
